Reference: article PMC12669672, “Structural insights into selective and dual antagonism of EP2 and EP4 prostaglandin receptors” (The EMBO Journal, 2025)
Several values for one entry are separate records, joined by “and”; a condition that tells them apart may be missing. Identical values can stand only once. Like-named read-outs stand apart in the source and are kept apart here.

What was measured:
Test in all cases: GloSensor cAMP assay, antagonism of PGE2-induced cAMP
Format in all cases: cell-based
EP2 W186A = molecular target: T1, EP2 W186A (Homo sapiens, UniProt P43116, W186A)
T1 construct: The full-length EP2 or EP4 was cloned into the pcDNA3.1 vector; FLAG (N); expressed in transfected cells; host or cells: AD293 cells
In short: (§1)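 Read-out is GloSensor luminescence from AD293 cells co-expressing FLAG-tagged EP2 variant and GloSensor22F biosensor, transfected at a 1:1 plasmid ratio. Cells were plated at 4000 per well in CO2-independent medium containing 2% cAMP reagent, incubated 1 h at 37 °C, then read.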

EP2 S86A = molecular target: T2, EP2 S86A (Homo sapiens, UniProt P43116, S86A); conditions: for cAMP activity (∆pIC50 from EP2 WT): TG6-129, S86A
T2 construct: The full-length EP2 or EP4 was cloned into the pcDNA3.1 vector; FLAG (N); expressed in transfected cells; host or cells: AD293 cells
In short: as §1

EP2 M116A = molecular target: T3, EP2 M116A (Homo sapiens, UniProt P43116, M116A); conditions: for cAMP activity (∆pIC50 from EP2 WT): TG6-129, M116A
T3 construct: The full-length EP2 or EP4 was cloned into the pcDNA3.1 vector; FLAG (N); expressed in transfected cells; host or cells: AD293 cells
In short: as §1

EP4 V320A = molecular target: T4, EP4 V320A (Homo sapiens, UniProt P35408, V320A); conditions: for cAMP activity (∆pIC50 from EP4 WT): TG6-129, V320A
T4 construct: The full-length EP2 or EP4 was cloned into the pcDNA3.1 vector (Invitrogen), incorporating an N-terminal FLAG tag; expressed in transfected cells; host or cells: AD293

EP2 S305A = molecular target: T5, EP2 S305A (Homo sapiens, UniProt P43116, S305A); conditions: for cAMP activity (∆pIC50 from EP2 WT): TG6-129, S305A
T5 construct: The full-length EP2 or EP4 was cloned into the pcDNA3.1 vector; FLAG (N); expressed in transfected cells; host or cells: AD293 cells
In short: as §1

EP4 S319A = molecular target: T6, EP4 S319A (Homo sapiens, UniProt P35408, S319A); conditions: for cAMP activity (∆pIC50 from EP4 WT): TG6-129, S319A
T6 construct: The full-length EP2 or EP4 was cloned into the pcDNA3.1 vector (Invitrogen), incorporating an N-terminal FLAG tag; expressed in transfected cells; host or cells: AD293

EP2 S308A = molecular target: T7, EP2 S308A (Homo sapiens, UniProt P43116, S308A)
T7 construct: The full-length EP2 or EP4 was cloned into the pcDNA3.1 vector; FLAG (N); expressed in transfected cells; host or cells: AD293 cells
In short: as §1

[1] = 1 h, TG6-129 log([M]) -6, read-out: % cAMP activity (normalized to WT)
[2] = 1 h, TG6-129 log([M]) -7, read-out: % cAMP activity (normalized to WT)
[3] = 1 h, TG6-129 log([M]) -8, read-out: % cAMP activity (normalized to WT)
[4] = 1 h, TG6-129 log([M]) -9, read-out: % cAMP activity (normalized to WT)
[5] = 1 h, TG6-129 log([M]) -10, read-out: % cAMP activity (normalized to WT)
[6] = 1 h, TG6-129 log([M]) -11, read-out: % cAMP activity (normalized to WT)
[7] = 1 h, TG6-129 log([M]) -12, read-out: % cAMP activity (normalized to WT)
[8] = 1 h, TG6-129 log([M]) -4.70, read-out: % cAMP activity (normalized to WT)
[9] = 1 h, TG6-129 log([M]) -5.40, read-out: % cAMP activity (normalized to WT)
[10] = 1 h, TG6-129 log([M]) -6.10, read-out: % cAMP activity (normalized to WT)
[11] = 1 h, TG6-129 log([M]) -6.80, read-out: % cAMP activity (normalized to WT)
[12] = 1 h, TG6-129 log([M]) -7.49, read-out: % cAMP activity (normalized to WT)
[13] = 1 h, TG6-129 log([M]) -8.19, read-out: % cAMP activity (normalized to WT)
[14] = 1 h, TG6-129 log([M]) -8.89, read-out: % cAMP activity (normalized to WT)

T2 sequence (P43116 whole entry S86A): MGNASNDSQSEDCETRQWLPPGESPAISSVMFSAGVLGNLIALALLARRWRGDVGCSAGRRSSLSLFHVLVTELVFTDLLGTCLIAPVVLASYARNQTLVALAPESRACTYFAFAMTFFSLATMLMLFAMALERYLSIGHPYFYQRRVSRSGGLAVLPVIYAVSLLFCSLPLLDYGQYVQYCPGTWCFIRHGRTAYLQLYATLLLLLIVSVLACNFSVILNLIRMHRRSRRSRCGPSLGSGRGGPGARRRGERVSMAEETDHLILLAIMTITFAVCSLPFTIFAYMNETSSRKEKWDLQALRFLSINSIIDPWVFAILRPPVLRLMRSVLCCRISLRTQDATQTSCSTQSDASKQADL
T4 sequence (P35408 whole entry V320A): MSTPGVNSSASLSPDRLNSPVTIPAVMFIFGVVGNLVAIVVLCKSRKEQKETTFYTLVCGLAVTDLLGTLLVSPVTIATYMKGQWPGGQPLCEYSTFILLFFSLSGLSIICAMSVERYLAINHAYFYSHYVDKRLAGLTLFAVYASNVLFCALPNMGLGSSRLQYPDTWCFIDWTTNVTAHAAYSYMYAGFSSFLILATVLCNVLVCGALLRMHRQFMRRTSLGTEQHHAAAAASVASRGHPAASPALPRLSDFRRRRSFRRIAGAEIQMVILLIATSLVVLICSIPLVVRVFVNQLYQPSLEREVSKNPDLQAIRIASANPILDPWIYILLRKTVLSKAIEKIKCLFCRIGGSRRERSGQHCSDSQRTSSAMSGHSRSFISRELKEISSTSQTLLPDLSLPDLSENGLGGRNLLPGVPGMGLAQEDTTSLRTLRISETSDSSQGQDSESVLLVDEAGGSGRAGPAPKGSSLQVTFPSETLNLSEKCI
T6 sequence (P35408 whole entry S319A): as the sequence (P35408 whole entry V320A) above, with S319A, A320V counted along it
T3 sequence (P43116 whole entry M116A): as the sequence (P43116 whole entry S86A) above, with A86S, M116A counted along it
T7 sequence (P43116 whole entry S308A): as the sequence (P43116 whole entry S86A) above, with A86S, S308A counted along it
T1 sequence (P43116 whole entry W186A): as the sequence (P43116 whole entry S86A) above, with A86S, W186A counted along it
T5 sequence (P43116 whole entry S305A): as the sequence (P43116 whole entry S86A) above, with A86S, S305A counted along it

CCc1nnc(NS(=O)(=O)c2ccc(NC(=S)NC(=O)/C=C/c3ccc(F)cc3)cc2)s1 [TG6-129]
IC50 (EP2 W186A): 2000 nM | remaining activity at 1 µM (EP2 W186A; [1]): 12.3% | remaining activity at 0.1 µM (EP2 W186A; [2]): 14.9% | remaining activity at 0.01 µM (EP2 W186A; [3]): 13.9% | remaining activity at 0.001 µM (EP2 W186A; [4]): 12.1% | remaining activity at 0.0001 µM (EP2 W186A; [5]): 12.9% | remaining activity at 10 pM (EP2 W186A; [6]): 15.2% | remaining activity at 1 pM (EP2 W186A; [7]): 12.4% | cAMP activity (∆pIC50 from EP2 WT) (EP2 W186A; TG6-129, W186A, Mean): -1.790 | IC50 (EP2 S86A): 339 nM | remaining activity at 0.01 µM (EP2 S86A; [3]): 39.3% | remaining activity at 0.0001 µM (EP2 S86A; [5]): 51.4% | remaining activity at 1 pM (EP2 S86A; [7]): 49.3% | cAMP activity (∆pIC50 from EP2 WT) (EP2 S86A; Mean): -0.714 | cAMP activity (∆pIC50 from EP2 WT) (EP2 S86A; single experiments 1st-3rd): -0.638 and -0.681 and -0.823 | IC50 (EP2 M116A): 513 nM | cAMP activity (∆pIC50 from EP2 WT) (EP2 M116A; Mean): -0.947 | cAMP activity (∆pIC50 from EP2 WT) (EP2 M116A; single experiments 1st-3rd): -0.910 and -0.955 and -0.975 | IC50 (EP4 V320A): 13.5 µM | remaining activity at […] (EP4 V320A; [8]): 26.1% | remaining activity at […] (EP4 V320A; [9]): 66.6% | remaining activity at […] (EP4 V320A; [10]): 66.9% | remaining activity at 0.1585 µM (EP4 V320A; [11]): 68% | remaining activity at 0.03236 µM (EP4 V320A; [12]): 66.5% | remaining activity at 0.006457 µM (EP4 V320A; [13]): 70.4% | remaining activity at 0.001288 µM (EP4 V320A; [14]): 68.8% | ΔpIC50 (EP4 V320A; PGE2 0.5 nM, pIC50 mutant - pIC50 WT, mean): -0.11 ± 0.05 | cAMP activity (∆pIC50 from EP4 WT) (EP4 V320A; Mean): -0.111 | cAMP activity (∆pIC50 from EP4 WT) (EP4 V320A; single experiments 1st-3rd): -0.105 and -0.202 and -0.027 | IC50 (EP2 S305A): 28.8 nM | remaining activity at 1 µM (EP2 S305A; [1]): 9.02% | remaining activity at 0.1 µM (EP2 S305A; [2]): 12.5% | remaining activity at 0.001 µM (EP2 S305A; [4]): 44.8% | remaining activity at 10 pM (EP2 S305A; [6]): 67.8% | remaining activity at 1 pM (EP2 S305A; [7]): 54.8% | cAMP activity (∆pIC50 from EP2 WT) (EP2 S305A; Mean): 0.475 | cAMP activity (∆pIC50 from EP2 WT) (EP2 S305A; single experiments 1st-3rd): 0.478 and 0.360 and 0.586 | IC50 (EP4 S319A): 20 µM | remaining activity at 100 µM (EP4 S319A; 1 h, TG6-129 log([M]) -4.00, read-out: % cAMP activity (normalized to WT)): 15.3% | remaining activity at […] (EP4 S319A; [8]): 26.4% | remaining activity at […] (EP4 S319A; [9]): 52.2% | remaining activity at […] (EP4 S319A; [10]): 50.8% | remaining activity at 0.1585 µM (EP4 S319A; [11]): 53.5% | remaining activity at 0.03236 µM (EP4 S319A; [12]): 57.1% | remaining activity at 0.006457 µM (EP4 S319A; [13]): 56.3% | remaining activity at 0.001288 µM (EP4 S319A; [14]): 49.4% | cAMP activity (∆pIC50 from EP4 WT) (EP4 S319A; Mean): -0.299 | cAMP activity (∆pIC50 from EP4 WT) (EP4 S319A; single experiments 1st-3rd): -0.429 and -0.317 and -0.151 | IC50 (EP2 S308A): 209 nM | remaining activity at 0.1 µM (EP2 S308A; [2]): 80.3% | remaining activity at 0.0001 µM (EP2 S308A; [5]): 108%
